Measured values published in patent publication US20260294770A1, “FORMULATIONS OF NARINGENIN” (DEBUT BIOTECHNOLOGY, INC., priority 2023, published 2026).

Experiments:
CSF2 = test: Downregulation of gene expression and/or activity, 1% naringenin: CSF2
Text: (§1) In certain embodiments, administration of a composition comprising naringenin leads to up-regulation of LCE5A, KRT77, ALOXE3, KRT1, HPGD, MUCL1, CASP14, WFDC12, KRT10, DNASE1L2, IL37, SERPINB12, HAL, UPK1A, CALML5, LCE2B, and/or MIR205. In certain embodiments, administration of a composition comprising naringenin leads to down-regulation of CCL11, CSF2, IL23A, IL11, BMP6, IL13RA2, C2CD4A, NR4A2, C2CD4B, FGF2, FARP4, GDF15, THBS1, HSPA1A, PTGS2, and/or DKK1. Tables 10 and 11 provide data for upregulation and downregulation respectively of certain genes after administration of compositions comprising 1% naringenin.
Granulocyte-macrophage colony-stimulating factor (CSF2) plays a role in inflammation and arthritis. In certain embodiments of the invention, downregulation of CSF2 leads to an anti-inflammatory activity and/or anti-arthritic activity. In certain embodiments, the administration of composition comprising naringenin results in at least about 10 to about 20-fold downregulation of expression and/or activity of CSF2. In certain embodiments, the administration of composition comprising naringenin results in at least about fifteen (15) fold downregulation of expression and/or activity of CSF2.

C2CD4A = test: Downregulation of gene expression and/or activity, 1% naringenin: C2CD4A; settings: negative = downregulation
Text: as §1

LCE2B = test: Upregulation of gene expression and/or activity, 1% naringenin: LCE2B
Text: as §1
Late cornified envelope 2B (LCE2B) plays a role in the formation of precursors of the cornified envelope of the stratum corneum. It also leads to improved formation of outer skin protective barrier. In certain embodiments, the administration of composition comprising naringenin results in upregulation of LCE2B, which has a role in enhancing the outer skin protective barrier. In certain embodiments, the administration of composition comprising naringenin results in at least about 5 to about 20-fold upregulation of expression and/or activity of LCE2B. In certain embodiments, the administration of composition comprising naringenin results in at least about five (5) fold upregulation of expression and/or activity of LCE2B.

IL23A = test: Downregulation of gene expression and/or activity, 1% naringenin: IL23A
Text: as §1
Interleukin 23A (1L23A) plays a role in the inflammatory pathway. In certain embodiments of the invention, downregulation of IL23A leads to an anti-inflammatory activity. In certain embodiments, the administration of composition comprising naringenin results in at least about 10 to about 20-fold downregulation of expression and/or activity of 1L23A. In certain embodiments, the administration of composition comprising naringenin results in at least about fifteen (15) fold downregulation of expression and/or activity of IL23A.

SERPINB12 = test: Upregulation of gene expression and/or activity, 1% naringenin: SERPINB12
Text: as §1
Serine protease inhibitor (SERPINB12) plays a role in protection of epithelial cells. The intracellular serine protease inhibitors (serpins) are an important family of proteins that protect cells form proteinase-mediated injury. SERPINB12 is broadly expressed and is likely to protect cells, including epithelial cells, from both endogenous and exogenous peptidases. In certain embodiments, compositions comprising naringenin leads to upregulation of SERPINB12, which leads to increase in protection of epithelial cells. In certain embodiments, the administration of composition comprising naringenin results in at least about 5 to about 20-fold upregulation of expression and/or activity of SERPINB12. […]

IL13RA2 = test: Downregulation of gene expression and/or activity, 1% naringenin: IL13RA2
Text: as §1
Interleukin 13 receptor subunit alpha 2 (IL13RA2) plays a role in recovery after stressor caused inflammatory response. In certain embodiments, downregulation of IL13RA2 leads to improved recovery after inflammation caused by stressors. In certain embodiments, the administration of composition comprising naringenin results in at least about 5 to about 15-fold downregulation of expression and/or activity of IL13RA2. In certain embodiments, the administration of composition comprising naringenin results in at least about ten (10) fold downregulation of expression and/or activity of IL13RA2.

KRT77 = test: Upregulation of gene expression and/or activity, 1% naringenin: KRT77
Text: as §1
Kertain 77 (KRT77) is involved in production of keratin. In particular, KRT77 encodes an epithelial keratin that is expressed in the skin and eccrine sweat glands. KRT77 encodes keratin 77, a member of the type II keratin family of intermediate filament proteins. Keratin 77 is also known as KRT1B, Type II cytoskeletal 1b, Type IT keratin Kb39, and cytokeratin 1B. In certain embodiments, upregulation of expression and/or activity of KRT77, results in enhanced keratin production. The increased keratin production contributes to increase in the skin barrier strength. In certain embodiments, the administration of composition comprising naringenin results in at least about 5 to about 20-fold upregulation of expression and/or activity of KRT77. […]

CALML5 = test: Upregulation of gene expression and/or activity, 1% naringenin: CALML5
Text: as §1
Calmodulin like 5 (CALML5) plays a role in cell growth. The enzyme encoded by CALML5 is a novel calcium binding protein expressed in the epidermis and related to the calmodulin family of calcium binding proteins. It plays a key role in cell growth and proliferation, including playing a key role in terminal differentiation of keratinocytes. In certain embodiments, administration of compositions comprising naringenin leads to upregulation of CALML5, which leads to increase cell proliferation, including the cells in the skin and the underlying tissues. […] In certain embodiments, the administration of composition comprising naringenin results in at least about 2 to about 10-fold upregulation of expression and/or activity of CALML5. […]

O=C1C[C@@H](c2ccc(O)cc2)Oc2cc(O)cc(O)c21 [naringenin, (2S)-5,7-Dihydroxy-2-(4-hydroxyphenyl)-2,3-dihydro-4H-1-benzopyran-4-one]
fold downregulation in expression and/or activity of CSF2 (CSF2): ~18 fold
Fold-increase (downregulation table) C2CD4A (C2CD4A): −10 fold
Fold-increase in expression and/or activity of LCE2B (LCE2B): ~9 fold
fold downregulation in expression and/or activity of IL23A (IL23A): ~18 fold
Fold-increase in expression and/or activity of SERPINB12 (SERPINB12): ~13 fold
fold downregulation in expression and/or activity of IL13RA2 (IL13RA2): ~10 fold
Fold-increase (downregulation table) IL13RA2 (IL13RA2; negative = downregulation): −10 fold
Fold-increase in expression and/or activity of KRT77 (KRT77): ~12 fold
Fold-increase in expression and/or activity of CALML5 (CALML5): ~7 fold
